Measured values as given in the METLIN SMRT retention time set (Domingo-Almenara et al. 2019).

Assay: gradient 5% acetonitrile 3 min, to 50% in 2 min, to 85% in 15 min, held 3 min, 100 µL/min
Conditions: column: Zorbax Extend-C18 2.1 x 50 mm; eluents: water / acetonitrile, 0.1% formic acid
Outline: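 Retention times come from adduct peaks that were picked computationally and then checked by hand. The standards, pure and pooled in mixtures of ~100 molecules, were run on a Zorbax Extend-C18 column (2.1 × 50 mm, 1.8 μm) at 100 μL/min with water and acetonitrile, each with 0.1% formic acid. Detection was by quadrupole time-of-flight mass spectrometry in positive and negative ionization mode, with a dead volume of 40 μL and a dwell volume of 900 μL.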

| RP-LC retention time | SMILES |
| --- | --- |
| 1010 s | O=C(CN1C(=O)CC(c2ccccc2)=Nc2cccnc21)Nc1ccc(Cl)cc1 |
| 870 s | CCC(C)NC(=O)Cn1cccc(-c2nc(-c3ccc(Br)cc3)no2)c1=O (stereo unspecified) |
| 923 s | Cc1cccc(OCc2nc(-c3ccc4c(c3)nnn4CCC(=O)N3CCCC3)no2)c1 |
| 809 s | COc1ccc(CNc2nc(NCc3ccc(OC)cc3)c3ncn(C(C)C)c3n2)cc1 |
| 910 s | COC(=O)CC1=CC(SCC(=O)Nc2ccc(Cl)cc2F)=Nc2ccccc2N1 |
| 1110 s | Fc1cccc(-c2noc(Cc3nnc(-c4cccc(Cl)c4)o3)n2)c1 |
| 626 s | Cc1cccc(-n2c(=O)c3c(cc(C)n3C)n(CC(=O)Nc3cccc(C(C)C)c3)c2=O)c1 |
| 775 s | Cc1ccc(-c2nnc(-c3cccc(S(=O)(=O)Nc4cccnc4)c3)o2)cc1 |
| 904 s | CCCn1c(-c2cccc(C(=O)NCC3CCCCC3)c2)nc2cccnc21 |
| 784 s | Cc1ccc2c(Nc3cc(F)ccc3C)c(-c3nc(C)no3)cnc2n1 |
| 916 s | Cc1c(Cl)cccc1Nc1c(-c2ccc(N3CCOCC3)cc2)nc2cnccn12 |
| 866 s | O=C(Nc1ncc(S(=O)(=O)c2ccc([N+](=O)[O-])cc2)s1)c1ccccc1F |
| 951 s | COCCCNC(=O)c1ccc(-c2nc(CN3CCc4ccccc43)c(C)o2)cc1 |
| 810 s | CCOC(=O)c1oc2ccc(S(=O)(=O)NCC3Cn4cccc4C(=O)N3C)cc2c1C (stereo unspecified) |
| 914 s | COc1ccc(-c2nnc(COc3cccc(NC(=O)c4cncc(Br)c4)c3)o2)cc1 |
| 798 s | Cc1ccc(C)c(CNc2nc3ccncc3n(Cc3ccccc3)c2=O)c1 |
| 932 s | CC(C)CCNc1nc(-c2ccc(Cl)cc2)nc2ccccc12 |
| 805 s | O=c1c2cc(-c3ccc4c(c3)OCO4)nn2ccn1Cc1nc(-c2ccc(F)c(Cl)c2)no1 |
| 700 s | Cn1nc(C(=O)N2CCCN(c3cc(-c4ccccc4)[nH]n3)CC2)c2ccccc21 |
| 980 s | N#Cc1ccc(S(=O)(=O)N2CC(c3nc(CCOCc4ccccc4)no3)C2)cc1 |
| 983 s | Cc1ccc(NC(=O)CC(C)S(=O)(=O)c2ccc3c(c2)CCN3C(=O)C2CC2)cc1N(C)C (stereo unspecified) |

More lines, now with the values behind:

| SMILES | RP-LC retention time |
| --- | --- |
| CCCNC(=O)N(C)Cc1cccnc1OCC | 680 s |
| CCc1ccc(C(C)NC(=O)c2cccc(C3CCCN(C(=O)NC)C3)c2)cc1 (stereo unspecified) | 888 s |
| COc1cc2c(cc1OC)C(/C=C/c1ccco1)=NCC2 | 693 s |
| CCCNC(=O)c1cc(-c2ccccc2)cn1CC | 977 s |
| CCc1noc2nc(C)n(CC(=O)NCc3ccc(OC(C)C)cc3)c(=O)c12 | 661 s |
| COCCCNC(=O)C1CCC(=O)N(c2ccc3c(c2)OCO3)C1c1ccc(OC)cc1 (stereo unspecified) | 644 s |
| O=C(Cc1csc(NC(=O)c2ccc(=O)[nH]c2)n1)NCc1ccccc1Cl | 616 s |
| CN1C(=O)c2cc(C(=O)NC3CCCCC3)nn2CC1(C)C(=O)NCc1ccc(F)cc1 (stereo unspecified) | 776 s |
| CCOCCCNC(=O)C1CCN(c2ncnc3c2oc2ccccc23)CC1 | 633 s |
| O=C(Cn1nc(C(=O)N2CCCC2)c2ccccc21)N1CCN(c2cccc(C(F)(F)F)c2)CC1 | 983 s |
| O=C(CSc1ccc(N2CCCC(C(=O)NC3CC3)C2)nn1)Nc1ccc2c(c1)CCC2 (stereo unspecified) | 691 s |
| CCC(=O)N1CC(n2cc(C(=O)NCC3CC3)nn2)C1 | 617 s |
| O=C(Nc1nc2ccccc2n1CCN1CCOCC1)c1cccc([N+](=O)[O-])c1 | 581 s |
| CCN1C(SCC(=O)Nc2c(C)cc(C)cc2C)=NS(=O)(=O)c2ccccc21 | 788 s |
| O=C(NC1CC1)c1ccccc1OC1CN(C2CCC2)C1 | 568 s |
